ChEMBL document CHEMBL5653631, “A Potent and Selective ULK1 Inhibitor Suppresses Autophagy and Sensitizes Cancer Cells to Nutrient Stress” (iScience, 2018)
Blank lines part the entries; values can stand above or below the compound they belong to.

How the values were obtained:
[1] = molecular target: Receptor-type tyrosine-protein kinase FLT3 (Homo sapiens) (UniProt P36888); assay: Inhibition of human recombinant FLT3 at 500 nM in presence of ATP by radiometric assay relative to control
[2] = molecular target: T1, Ephrin type-B receptor 3 (Homo sapiens) (UniProt P54753); assay: Inhibition of human recombinant EphB3 at 500 nM related to control ULK1
T1 sequence (whole entry): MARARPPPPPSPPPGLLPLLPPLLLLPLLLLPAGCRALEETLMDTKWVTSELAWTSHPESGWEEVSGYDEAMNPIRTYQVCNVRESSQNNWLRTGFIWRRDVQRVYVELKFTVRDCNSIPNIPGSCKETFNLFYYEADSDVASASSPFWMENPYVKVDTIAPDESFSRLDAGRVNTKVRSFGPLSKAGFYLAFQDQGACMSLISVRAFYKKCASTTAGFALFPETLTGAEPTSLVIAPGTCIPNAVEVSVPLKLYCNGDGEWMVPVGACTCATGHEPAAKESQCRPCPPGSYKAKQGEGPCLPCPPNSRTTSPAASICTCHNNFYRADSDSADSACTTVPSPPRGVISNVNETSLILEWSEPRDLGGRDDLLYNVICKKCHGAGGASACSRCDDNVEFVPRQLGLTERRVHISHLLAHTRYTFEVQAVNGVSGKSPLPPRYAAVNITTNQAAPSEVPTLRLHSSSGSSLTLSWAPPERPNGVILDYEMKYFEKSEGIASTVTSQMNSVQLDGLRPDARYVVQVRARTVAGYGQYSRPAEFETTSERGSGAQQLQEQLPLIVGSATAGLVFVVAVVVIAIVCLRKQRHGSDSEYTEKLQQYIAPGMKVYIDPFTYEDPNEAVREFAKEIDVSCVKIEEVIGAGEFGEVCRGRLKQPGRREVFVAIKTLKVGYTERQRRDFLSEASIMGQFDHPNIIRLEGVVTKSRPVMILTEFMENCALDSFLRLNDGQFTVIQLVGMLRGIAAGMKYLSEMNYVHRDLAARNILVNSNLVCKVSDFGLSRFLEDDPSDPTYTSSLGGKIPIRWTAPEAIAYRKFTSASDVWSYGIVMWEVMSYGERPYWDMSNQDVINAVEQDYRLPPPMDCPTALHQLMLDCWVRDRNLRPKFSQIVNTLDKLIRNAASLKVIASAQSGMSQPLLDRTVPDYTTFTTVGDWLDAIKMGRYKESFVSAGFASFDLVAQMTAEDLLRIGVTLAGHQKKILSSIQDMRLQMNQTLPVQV

[3] = molecular target: T2, Serine/threonine-protein kinase ULK3 (Homo sapiens) (UniProt Q6PHR2); assay: Inhibition of human recombinant ULK3 at 500 nM in presence of ATP by radiometric assay relative to control
T2 sequence (whole entry): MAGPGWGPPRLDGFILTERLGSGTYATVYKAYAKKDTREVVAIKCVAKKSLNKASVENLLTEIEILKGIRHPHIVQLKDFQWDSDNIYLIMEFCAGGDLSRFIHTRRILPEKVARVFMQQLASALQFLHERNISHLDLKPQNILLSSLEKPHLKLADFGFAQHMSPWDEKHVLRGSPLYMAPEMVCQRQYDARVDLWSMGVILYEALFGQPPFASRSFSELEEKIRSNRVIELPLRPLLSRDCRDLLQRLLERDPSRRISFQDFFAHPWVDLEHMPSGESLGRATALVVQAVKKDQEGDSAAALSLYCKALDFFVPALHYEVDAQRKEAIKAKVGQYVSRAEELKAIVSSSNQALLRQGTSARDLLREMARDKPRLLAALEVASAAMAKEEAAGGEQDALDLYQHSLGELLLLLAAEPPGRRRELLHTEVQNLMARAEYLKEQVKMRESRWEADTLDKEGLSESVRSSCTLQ

[4] = molecular target: Cell division cycle 7-related protein kinase (Homo sapiens) (UniProt O00311); assay: Inhibition of human recombinant CDC7 at 500 nM in presence of ATP by radiometric assay relative to control
Sequence of Cell division cycle 7-related protein kinase (Homo sapiens) (O00311 whole entry, looked up): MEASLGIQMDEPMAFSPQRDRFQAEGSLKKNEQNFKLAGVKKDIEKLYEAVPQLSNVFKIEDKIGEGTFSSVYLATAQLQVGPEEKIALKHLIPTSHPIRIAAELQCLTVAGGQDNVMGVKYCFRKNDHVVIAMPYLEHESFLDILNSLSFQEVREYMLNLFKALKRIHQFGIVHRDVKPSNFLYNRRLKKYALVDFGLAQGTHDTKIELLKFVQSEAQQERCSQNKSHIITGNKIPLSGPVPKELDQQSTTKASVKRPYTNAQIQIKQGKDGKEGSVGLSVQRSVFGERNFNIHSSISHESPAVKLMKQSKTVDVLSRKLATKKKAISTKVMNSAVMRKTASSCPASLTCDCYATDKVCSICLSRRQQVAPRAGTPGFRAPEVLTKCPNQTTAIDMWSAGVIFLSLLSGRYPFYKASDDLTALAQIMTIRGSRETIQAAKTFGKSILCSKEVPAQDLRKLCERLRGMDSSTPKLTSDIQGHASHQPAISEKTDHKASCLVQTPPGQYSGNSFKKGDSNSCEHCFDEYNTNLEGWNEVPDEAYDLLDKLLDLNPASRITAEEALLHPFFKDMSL

[5] = molecular target: Mitogen-activated protein kinase 9 (Homo sapiens) (UniProt P45984); assay: Inhibition of human recombinant JNK2 at 500 nM in presence of ATP by radiometric assay relative to control
Sequence of Mitogen-activated protein kinase 9 (Homo sapiens) (P45984 whole entry, looked up): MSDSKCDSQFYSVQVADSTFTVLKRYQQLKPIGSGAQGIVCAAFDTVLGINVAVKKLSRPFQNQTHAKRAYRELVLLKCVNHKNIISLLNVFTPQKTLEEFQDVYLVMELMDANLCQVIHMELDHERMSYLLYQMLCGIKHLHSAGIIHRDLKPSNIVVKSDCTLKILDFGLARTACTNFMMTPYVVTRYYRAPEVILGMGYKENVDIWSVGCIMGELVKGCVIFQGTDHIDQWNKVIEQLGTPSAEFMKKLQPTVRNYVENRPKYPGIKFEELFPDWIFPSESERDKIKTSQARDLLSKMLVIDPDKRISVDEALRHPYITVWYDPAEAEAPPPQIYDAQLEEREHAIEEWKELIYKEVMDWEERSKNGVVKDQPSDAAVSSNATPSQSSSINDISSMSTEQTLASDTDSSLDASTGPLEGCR

[6] = molecular target: T3, Serine/threonine-protein kinase Nek3 (Homo sapiens) (UniProt P51956); assay: Inhibition of human recombinant NEK3 at 15 nM related to control ULK1
T3 sequence (whole entry): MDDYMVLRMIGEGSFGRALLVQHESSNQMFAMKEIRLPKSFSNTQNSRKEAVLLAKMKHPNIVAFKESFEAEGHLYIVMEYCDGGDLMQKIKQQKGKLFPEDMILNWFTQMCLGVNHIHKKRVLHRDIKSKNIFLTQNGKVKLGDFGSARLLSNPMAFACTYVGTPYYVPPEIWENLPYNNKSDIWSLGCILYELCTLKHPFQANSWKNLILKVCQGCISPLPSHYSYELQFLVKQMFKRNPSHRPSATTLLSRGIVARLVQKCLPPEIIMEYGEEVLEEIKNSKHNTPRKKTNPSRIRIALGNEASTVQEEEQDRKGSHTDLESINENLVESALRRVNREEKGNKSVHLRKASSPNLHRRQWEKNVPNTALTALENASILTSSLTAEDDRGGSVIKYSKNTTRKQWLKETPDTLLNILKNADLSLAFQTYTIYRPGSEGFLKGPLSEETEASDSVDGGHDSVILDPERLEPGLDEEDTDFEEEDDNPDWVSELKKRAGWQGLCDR

[7] = molecular target: T4, Mitogen-activated protein kinase kinase kinase 3 (Homo sapiens) (UniProt Q99759); assay: Inhibition of human recombinant MAP3K3 at 15 nM in presence of ATP by radiometric assay relative to control
T4 sequence (whole entry): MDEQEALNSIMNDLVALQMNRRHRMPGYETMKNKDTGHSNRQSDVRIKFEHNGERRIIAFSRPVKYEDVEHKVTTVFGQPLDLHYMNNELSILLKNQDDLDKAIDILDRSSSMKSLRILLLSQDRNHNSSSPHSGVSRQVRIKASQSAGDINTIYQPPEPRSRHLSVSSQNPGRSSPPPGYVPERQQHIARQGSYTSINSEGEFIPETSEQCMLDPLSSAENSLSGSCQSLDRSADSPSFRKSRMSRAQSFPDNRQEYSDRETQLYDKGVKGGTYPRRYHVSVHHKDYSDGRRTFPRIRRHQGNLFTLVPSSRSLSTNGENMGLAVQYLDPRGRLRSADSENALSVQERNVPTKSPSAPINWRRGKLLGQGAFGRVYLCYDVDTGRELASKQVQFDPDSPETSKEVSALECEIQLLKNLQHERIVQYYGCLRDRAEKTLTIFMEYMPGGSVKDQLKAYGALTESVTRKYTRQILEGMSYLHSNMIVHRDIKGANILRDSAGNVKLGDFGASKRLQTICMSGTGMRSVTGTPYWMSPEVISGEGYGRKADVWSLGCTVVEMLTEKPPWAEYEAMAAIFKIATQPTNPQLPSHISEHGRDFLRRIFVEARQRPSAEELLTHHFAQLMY

[8] = molecular target: Fibroblast growth factor receptor 2 (Homo sapiens) (UniProt P21802); assay: Inhibition of human recombinant FGFR2 at 40 nM related to control ULK1
Sequence of Fibroblast growth factor receptor 2 (Homo sapiens) (P21802 22-821 limits assumed): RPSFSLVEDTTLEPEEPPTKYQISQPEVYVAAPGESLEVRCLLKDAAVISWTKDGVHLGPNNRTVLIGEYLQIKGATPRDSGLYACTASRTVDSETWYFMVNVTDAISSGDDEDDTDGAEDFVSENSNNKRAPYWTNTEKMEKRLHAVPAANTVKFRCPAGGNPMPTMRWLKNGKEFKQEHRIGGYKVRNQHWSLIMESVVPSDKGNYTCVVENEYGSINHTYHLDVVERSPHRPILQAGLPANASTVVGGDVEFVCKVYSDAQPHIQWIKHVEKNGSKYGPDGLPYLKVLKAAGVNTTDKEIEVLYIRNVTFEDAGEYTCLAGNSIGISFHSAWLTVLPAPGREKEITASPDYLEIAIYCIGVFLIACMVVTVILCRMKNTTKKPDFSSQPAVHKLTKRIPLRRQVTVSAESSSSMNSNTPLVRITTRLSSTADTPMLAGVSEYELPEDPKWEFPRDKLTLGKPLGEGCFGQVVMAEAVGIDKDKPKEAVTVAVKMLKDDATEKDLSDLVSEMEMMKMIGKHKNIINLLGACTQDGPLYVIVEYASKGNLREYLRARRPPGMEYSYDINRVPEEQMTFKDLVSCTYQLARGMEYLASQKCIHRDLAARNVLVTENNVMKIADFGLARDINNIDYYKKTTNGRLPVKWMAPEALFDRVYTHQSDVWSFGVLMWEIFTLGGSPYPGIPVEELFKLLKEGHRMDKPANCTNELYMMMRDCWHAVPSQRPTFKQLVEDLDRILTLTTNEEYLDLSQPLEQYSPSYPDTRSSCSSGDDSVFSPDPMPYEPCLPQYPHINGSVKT

Sequence of Receptor-type tyrosine-protein kinase FLT3 (Homo sapiens) (P36888 whole entry): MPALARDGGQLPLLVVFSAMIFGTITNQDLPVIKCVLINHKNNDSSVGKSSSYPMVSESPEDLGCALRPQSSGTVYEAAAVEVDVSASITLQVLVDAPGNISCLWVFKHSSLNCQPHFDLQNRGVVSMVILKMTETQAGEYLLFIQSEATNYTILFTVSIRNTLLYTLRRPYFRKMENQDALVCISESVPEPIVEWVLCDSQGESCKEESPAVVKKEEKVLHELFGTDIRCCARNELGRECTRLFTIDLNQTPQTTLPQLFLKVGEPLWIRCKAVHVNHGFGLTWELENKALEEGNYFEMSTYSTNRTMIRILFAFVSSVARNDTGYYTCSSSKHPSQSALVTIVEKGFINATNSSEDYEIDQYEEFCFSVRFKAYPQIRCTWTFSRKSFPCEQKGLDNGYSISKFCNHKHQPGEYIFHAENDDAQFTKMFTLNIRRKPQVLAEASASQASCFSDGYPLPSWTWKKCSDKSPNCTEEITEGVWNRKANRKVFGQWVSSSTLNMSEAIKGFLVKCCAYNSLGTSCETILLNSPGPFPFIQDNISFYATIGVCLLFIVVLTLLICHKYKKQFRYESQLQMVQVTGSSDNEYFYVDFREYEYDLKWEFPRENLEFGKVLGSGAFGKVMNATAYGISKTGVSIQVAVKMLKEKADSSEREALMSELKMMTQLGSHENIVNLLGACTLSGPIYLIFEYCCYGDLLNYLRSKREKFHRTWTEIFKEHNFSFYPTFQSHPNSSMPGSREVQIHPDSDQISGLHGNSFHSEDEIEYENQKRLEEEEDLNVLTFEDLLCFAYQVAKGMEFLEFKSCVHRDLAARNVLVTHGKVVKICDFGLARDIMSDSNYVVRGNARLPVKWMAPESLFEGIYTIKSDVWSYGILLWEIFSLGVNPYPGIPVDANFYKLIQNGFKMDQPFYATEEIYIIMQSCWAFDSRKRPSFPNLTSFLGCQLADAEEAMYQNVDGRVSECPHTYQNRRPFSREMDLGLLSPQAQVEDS

- inhibition [1]: 57%
- fold change (FC) [2]: 0
- inhibition [3]: 84%
- inhibition [4]: 0%
- inhibition [5]: 0%
Structure (SMILES): CNC(=O)c1ccccc1Oc1nc(Nc2cc(OC)c(OC)c(OC)c2)ncc1Br

- fold change (FC) [6]: 0.01
- inhibition [7]: 3%
Structure (SMILES): CC(C)[C@H](NC(=O)c1cc(-c2cnn3cc(-c4ccc(OCCN5CCCCC5)cc4)cnc23)cs1)C(F)(F)F

- fold change (FC) [8]: 0
Structure (SMILES): O=C(N[C@@H](C1CC1)C(F)(F)F)c1cc(-c2cnn3cc(-c4ccc(F)cc4)cnc23)cs1
